Patent US11566025B2, “Viral replication inhibitors” (Katholieke Universiteit Leuven, priority 2013, dated 2023)
Read-outs that look alike come from different tables or passages of the source.

How the values were obtained:
Assay type in all cases: cell-based
[1] = system: DENV-1 Djibouti strain D1/H/IMTSSA/98/606; assay: Antiviral activity against DENV-1 in Vero-B cells (viral RNA load by RT-qPCR); conditions: Dengue virus, DENV1, 168 h; DENV-1, Vero-B cells, inhibition of viral RNA replication by 50%, 7 days
Vero-B cells = assay: in vitro; conditions: African green monkey
Protocol: (§1) Potential cytotoxic effects of the compounds were evaluated in uninfected quiescent Vero-B or Vero-M cells. Cells were seeded at 5×10^4 cells/well in a 96-well plate in the presence of two-fold serial dilutions (ranging from 50 μg/mL-0.004 μg/mL) of compound and incubated for 4 to 7 days. Culture medium was discarded and 100 μL 3-(4,5-dimethylthiazol-2-yl)-5-(3-carboxymethoxyphenyl)-2-(4-sulfophenyl)-2H-tetrazolium/phenazinemethosuIfate (MTS/PMS; Promega, Leiden, The Netherlands) in PBS was added to each well. Following a 2-hour incubation period at 37° C., the optical density was determined at 498 nm. Cytotoxic activity was calculated using the following formula: % cell viability=100× (ODcompound/ODCC), where ODcompound and ODCC correspond to the optical density at 498 nm of the uninfected cell cultures treated with compound and that of uninfected, untreated cell cultures, respectively. The 50% cytotoxic concentration (i.e., the concentration that reduces the total cell number with 50%; CC50) was calculated using linear interpolation.

in vitro = conditions: African green monkey
Protocol: as §1

DENV-2 NGC = assay: Antiviral activity against DENV-2 in Vero-B cells (viral RNA load by RT-qPCR); conditions: Dengue virus, DENV2, 96 h; DENV-2, Vero-B cells, inhibition of viral RNA replication by 50%, 4 days
[2] = system: DENV-3 strain H87 prototype; assay: Antiviral activity against DENV-3 in Vero-B cells (viral RNA load by RT-qPCR); conditions: Dengue virus
DENV-4 strain H241 = assay: Antiviral activity against DENV-4 in Vero-M cells (viral RNA load by RT-qPCR); conditions: Dengue virus, DENV4, 120 h; DENV-4, Vero-M cells, inhibition of viral RNA replication by 50%, 5 days
[3] = DENV3, 168 h, DENV-3, Vero-B cells, inhibition of viral RNA replication by 50%, 7 days, read-out: EC50

COc1cccc(NC(C(=O)c2nn(C)cc2-c2ccccc2)c2ccccc2)c1 (stereo not drawn) [CPD-001]
EC50 [1]: 2640 nM
CC50 (Vero-B cells): > 126000 nM
CC50 (in vitro; CC50 (μM)): > 125 µM
EC50 (DENV-2 NGC): 323 nM
EC50 [2, 3]: 2120 nM

COc1cccc(NC(C(=O)c2nn(C)cc2-c2ccc(F)cc2)c2ccccc2)c1 (stereo not drawn) [CPD-002]
EC50 [1]: 2090 nM
CC50 (Vero-B cells): > 120000 nM
CC50 (in vitro): > 120 µM
CC50 (in vitro; CC50 (μM)): > 120 µM
EC50 (DENV-2 NGC): 95 nM
EC50 (DENV-4 strain H241): 8210 nM
EC50 [2, 3]: 794 nM

COc1cccc(NC(C(=O)c2nn(C)cc2-c2ccccc2)c2cccnc2)c1 (stereo not drawn) [CPD-003]
EC50 [1]: 7010 nM
CC50 (Vero-B cells): 104000 nM
CC50 (in vitro; CC50 (μM)): > 125 µM
EC50 (DENV-2 NGC): 1660 nM

COc1cccc(NC(C(=O)c2nn(C)cc2-c2ccccc2)c2cncc(F)c2)c1 (stereo not drawn) [CPD-004]
EC50 [1]: 9780 nM
CC50 (Vero-B cells): > 120000 nM
CC50 (in vitro; CC50 (μM)): > 120 µM
EC50 (DENV-2 NGC): 1550 nM

COc1cccc(NC(C(=O)c2nn(C)cc2-c2ccccc2F)c2ccccc2)c1 (stereo not drawn) [CPD-005]
CC50 (in vitro; CC50 (μM)): > 120 µM
EC50 (DENV-2 NGC): 383 nM

COc1cccc(NC(C(=O)c2nn(C)cc2-c2cccc(F)c2)c2ccccc2)c1 (stereo not drawn) [CPD-006]
CC50 (in vitro; CC50 (μM)): > 120 µM
EC50 (DENV-2 NGC): 517 nM

COc1cccc(NC(C(=O)c2nn(C)cc2-c2cnn(C)c2)c2ccccc2)c1 (stereo not drawn) [CPD-007]
CC50 (in vitro; CC50 (μM)): > 125 µM
EC50 (DENV-2 NGC): 15500 nM

COc1cccc(NC(C(=O)c2nn(C)cc2-c2ccccc2)c2ccc(F)cc2)c1 (stereo not drawn) [CPD-008]
EC50 [1]: 2640 nM
CC50 (Vero-B cells): > 120000 nM
CC50 (in vitro): > 120 µM
CC50 (in vitro; CC50 (μM)): > 120 µM
EC50 (DENV-2 NGC): 96 nM
EC50 (DENV-4 strain H241): 4740 nM
EC50 [2, 3]: 1010 nM

COc1cccc(NC(C(=O)c2nn(C)cc2-c2cncnc2)c2ccc(C)cc2)c1 (stereo not drawn) [CPD-009]
CC50 (in vitro; CC50 (μM)): > 120 µM
EC50 (DENV-2 NGC): 3290 nM

COc1cccc(NC(C(=O)c2nn(C)cc2-c2ccncc2)c2ccc(C)cc2)c1 (stereo not drawn) [CPD-010]
CC50 (in vitro; CC50 (μM)): > 121 µM
EC50 (DENV-2 NGC): 2110 nM

COc1cccc(NC(C(=O)c2nn(C)cc2-c2ccccc2)c2cnc(OC)cn2)c1 (stereo not drawn) [CPD-011]
CC50 (in vitro; CC50 (μM)): > 116 µM
EC50 (DENV-2 NGC): 745 nM

COc1cncc(NC(C(=O)c2nn(C)cc2-c2ccccc2)c2ccc(OC)nc2)c1 (stereo not drawn) [CPD-012]
CC50 (in vitro; CC50 (μM)): > 116 µM
EC50 (DENV-2 NGC): 71300 nM

COc1cccc(NC(C(=O)c2nn(C)cc2-c2ccccc2)c2cc3ccccn3n2)c1 (stereo not drawn) [CPD-013]
EC50 [1]: 2240 nM
CC50 (Vero-B cells): > 114000 nM
CC50 (in vitro; CC50 (μM)): > 114 µM
EC50 (DENV-2 NGC): 343 nM

COc1cccc(NC(C(=O)c2nn(C)cc2-c2ccc(C#N)cc2)c2cc3ccccn3n2)c1 (stereo not drawn) [CPD-014]
CC50 (in vitro; CC50 (μM)): > 108 µM
EC50 (DENV-2 NGC): 2290 nM

COc1cc(NC(C(=O)c2nn(C)cc2-c2ccccc2)c2ccc(C)cc2)cc(OC)c1 (stereo not drawn) [CPD-015]
EC50 [1]: 132 nM
CC50 (Vero-B cells): > 113000 nM
CC50 (in vitro): > 113 µM
CC50 (in vitro; CC50 (μM)): > 113 µM
EC50 (DENV-2 NGC): 16 nM
EC50 (DENV-4 strain H241): 3150 nM
EC50 ([2]; DENV3, Vero B, 168 h): 1190 nM

COc1cccc(NC(C(=O)c2nn(C)cc2-c2ccc3scnc3c2)c2ccc(OC)nc2)c1 (stereo not drawn) [CPD-016]
CC50 (in vitro; CC50 (μM)): > 103 µM
EC50 (DENV-2 NGC): 1870 nM

COc1cccc(NC(C(=O)c2nn(C)cc2-c2ccc3c(c2)CCO3)c2ccc(OC)nc2)c1 (stereo not drawn) [CPD-017]
CC50 (in vitro; CC50 (μM)): > 106 µM
EC50 (DENV-2 NGC): 1640 nM

COc1cccc(NC(C(=O)c2nn(C)cc2-c2cccs2)c2ccc(OC)nc2)c1 (stereo not drawn) [CPD-018]
CC50 (in vitro; CC50 (μM)): > 115 µM
EC50 (DENV-2 NGC): 1270 nM

COc1cccc(NC(C(=O)c2nn(C)cc2-c2ccc(C)nc2)c2ccccc2)c1 (stereo not drawn) [CPD-019]
CC50 (in vitro; CC50 (μM)): 80 µM
EC50 (DENV-2 NGC): 39900 nM

COc1cccc(NC(C(=O)c2nn(C)cc2-c2c(C)noc2C)c2ccc(C)cc2)c1 (stereo not drawn) [CPD-020]
CC50 (in vitro; CC50 (μM)): > 116 µM
EC50 (DENV-2 NGC): 13200 nM

COc1cccc(NC(C(=O)c2n[nH]cc2-c2ccccc2)c2ccccc2)c1 (stereo not drawn) [CPD-023]
EC50 [1]: 939 nM
EC50 (DENV-2 NGC): 443 nM

COc1cccc(NC(C(=O)c2c[nH]cc2-c2ccccc2)c2ccccc2)c1 (stereo not drawn) [CPD-024]
EC50 [1]: 1530 nM
CC50 (in vitro): 10 µM
EC50 (DENV-2 NGC): 207 nM
EC50 (DENV-4 strain H241): 1600 nM
EC50 [2, 3]: 1910 nM

COc1cccc(NC(C(=O)c2cscc2-c2ccccc2)c2ccccc2)c1 (stereo not drawn) [CPD-025]
EC50 [1]: 3630 nM
CC50 (in vitro; CC50 (μM)): > 125 µM

COc1cccc(NC(C(=O)c2cn(C)nc2-c2ccccc2)c2ccccc2)c1 (stereo not drawn) [CPD-026]
EC50 [1]: 2390 nM
CC50 (in vitro; CC50 (μM)): > 126 µM

COc1cc(NC(C(=O)N2CCCCC2c2ccccc2)c2ccc(C)cc2)cc(OC)c1 (stereo not drawn) [CPD-027]
EC50 [1]: 2080 nM
EC50 (DENV-2 NGC): 1220 nM
EC50 [2, 3]: 7230 nM

COc1cc(NC(C(=O)N2CCCC2c2ccccc2)c2ccc(C)cc2)cc(OC)c1 (stereo not drawn) [CPD-028]
EC50 [1]: 17200 nM
CC50 (Vero-B cells): 70000 nM
CC50 (in vitro): > 116 µM
CC50 (in vitro; CC50 (μM)): > 116 µM
EC50 (DENV-2 NGC): 221 nM
EC50 (DENV-4 strain H241): 6670 nM

COc1cc(NC(C(=O)N2CCN(C)CC2c2ccccc2)c2ccc(C)cc2)cc(OC)c1 (stereo not drawn) [CPD-238]
CC50 (in vitro; CC50 (μM)): > 99 µM
EC50 (DENV-2 NGC): 2820 nM

COc1cc(NC(C(=O)N2CCCCCC2c2ccccc2)c2ccc(C)cc2)cc(OC)c1 (stereo not drawn) [CPD-242]
CC50 (in vitro; CC50 (μM)): > 109 µM
EC50 (DENV-2 NGC): 1160 nM

COc1cc(NC(C(=O)c2cn(C)c(Br)c2-c2ccccc2)c2ccccc2)cc(OC)c1 (stereo not drawn) [CPD-311]
EC50 [1]: 16 nM
CC50 (Vero-B cells): > 99000 nM
CC50 (in vitro; CC50 (μM)): > 99 µM
EC50 (DENV-2 NGC): 47 nM
EC50 [2, 3]: 266 nM

COc1cc(NC(C(=O)N2CCOCC2c2ccccc2)c2ccc(C)cc2)cc(OC)c1 (stereo not drawn) [CPD-312]
CC50 (in vitro; CC50 (μM)): > 112 µM
EC50 (DENV-2 NGC): 5650 nM

COc1cc(NC(C(=O)N2CCSCC2c2ccccc2)c2ccc(C)cc2)cc(OC)c1 (stereo not drawn) [CPD-313]
CC50 (in vitro; CC50 (μM)): > 108 µM
EC50 (DENV-2 NGC): 951 nM

COc1cc(NC(C(=O)N2CCS(=O)(=O)CC2c2ccccc2)c2ccc(C)cc2)cc(OC)c1 (stereo not drawn) [CPD-314]
CC50 (in vitro; CC50 (μM)): > 101 µM
EC50 (DENV-2 NGC): 4470 nM
